How the values were obtained:
HL60 cell line = test: Antiproliferative activity on HL60 cell line (CellTiter-Glo); format: cell-based; details: Homo sapiens, HL-60; HL60, 72 h of treatment
Experimental: The human leukaemic cell line HL60 was grown in suspension in RPMI 1640 medium containing 10% (v/v) FBS and 1% (v/v) P/S (Life Technologies). […] Leukaemia cells were suspended at a density of 2×10^5 cells/mL in complete RPMI 1640 medium and 25 μL were seeded in each well (5×10^3 final total cells/well). A 10 μM solution of the compounds of examples 1, 12 and 21, and a 25 μM solution of all other compounds were prepared in complete medium, and then serially diluted (1:2) (as specified in Table 3 below). A solution of complete medium with DMSO was used as a vehicle control.
Twenty-five microliters of each serially diluted compound solution were added to the corresponding wells of the plate (50 μL of final volume/well). After 48 h of treatment, 50 μL of fresh 2X serially diluted compound solution was added to their corresponding wells (100 μL of final volume/well). After twenty-four additional hours, an equal volume (100 μL) of CellTiter-Glo Reagent (Promega) was added to each well, plates were shaken during 2 min and incubated at rt for 10 min. Luminescence was recorded using a Spark multimode microplate reader and an integration time of 1 s per well.

human TET2 construct = human TET2 construct (Homo sapiens, UniProt Q6N021, A1837G/A1840G/D1704G/D1842G/DEL1471-1702/DEL1708-1833/E1841G/F1706G/N1843S/Q1834G/V1836G); test: Determination of TET2 binding by Surface Plasmon Resonance; details: SPR, Biacore T200, 25° C., steady state fit to single site interaction model
Experimental: The human methylcytosine dioxygenase TET2 construct used (1129-2002 with residues 1471-1843 replaced by a 15-residue GS-linker) was expressed in a pET-28a(+)psumo vector with kanamycin resistance and an N-terminal His6 tag, and cloned in Rosetta D3 Escherichia coli competent cells. Transformed cells were cultured overnight in 10 mL of LB media supplied with kanamycin (50 μg/mL), then scaled to 1 L LB medium supplied with kanamycin (50 μg/mL) and grown at 37° C. Once the optical density (OD600) achieved 0.8, protein expression was induced with 0.4 mM isopropyl-β-thiogalactopyranoside (IPTG) overnight at 18° C. Cells were harvested by centrifugation (8,000 rpm, 4° C., 30 min) and the pellet obtained was resuspended in 15 mL of buffer A (50 mM Hepes, 150 mM NaCl, 30 mM imidazole, 2 mM β-mercaptoethanol (pH 8.0) supplemented with Pierce protease inhibitor cocktail (ThermoFisher Scientific)) and lysed by sonication (1 min 40 s: 10 cycles×10 s ON, 30 s OFF, A=35%, T=19° C.) followed by two consecutive centrifugations (8,000 rpm, 4° C., 30 min) to clarify the lysate.
The TET2 protein was purified using an AKTA Start system (GE Healthcare, Uppsala, Sweden) by two-step purification procedure: one His-affinity chromatography followed by a size exclusion chromatography. First, the protein fraction obtained during the lysis (supernatant) was applied to a 5 mL HisTrap HP column (GE Healthcare), washed with buffer A (50 mM Hepes, 150 mM NaCl, 30 mM imidazole, 2 mM […] (pH 8.0)) and the bound protein was eluted with buffer B (50 mM Hepes, 150 mM NaCl, 250 mM imidazole, 2 mM β-mercaptoethanol (pH 8.0)). The eluted protein-containing fractions were pooled and concentrated up to 4 mL for the last purification step: a size exclusion chromatography (HiPrep 16/60 Sephacryl S-100 HR) in 50 mM Hepes, 150 mM NaCl, 2 mM β-mercaptoethanol (pH 8.0). Finally, the mass and purity of the protein were verified by SDS-electrophoresis and mass spectrometry.
The binding of compounds of the examples was determined by Surface Plasmon Resonance (SPR) using a Biacore T200 SPR biosensor instrument (GE Healthcare, Uppsala, Sweden) at 25° C. The human TET2 construct was immobilized on a CM5 sensor chip using a standard covalent immobilization via amine coupling following the activation of the carboxymethyl dextran matrix of the sensor chip (injection of a solution containing 0.1 M N-hydroxysuccinimide and 0.4 M 1-ethyl-3-[3-(dimethylamino)propyl]carbodiimide hydrochloride at a flow rate of 15 μL/min for 7 min). The protein immobilization was achieved after the injection of 5 μg/mL TET2 in 10 mM sodium acetate (pH 4.0) at a flow rate of 5 μL/min. Unreacted activated groups of the dextran matrix were deactivated by injection of 1 M ethanolamine hydrochloride for 7 min at a flow rate of 15 μL/min. The corresponding matrix activation and protein immobilization were performed using as a running buffer a phosphate buffered saline solution (1.05× PBS: 10 mM phosphate, pH 7.4, 150 mM NaCl). The screened compounds were prepared in a 20 mM stock solution in DMSO and diluted with 1.05× PBS to achieve a final 5% (v/v) DMSO concentration. The running buffer of the interaction assays consisted of 1×PBS, 5% (v/v) DMSO. The flow rate used for the screening was 60 μL/min and the ligand association and dissociation times set were 60 s and 120 s, respectively.
For data analysis the software used was the Biacore T200 Evaluation software. Different corrections were applied. First, the nonspecific binding to the chip surface and the baseline drift were corrected subtracting the signals of a reference surface (where the immobilization procedure was carried out without proteins) to the signals obtained on the TET2 surface. Second, a series of solvent standards (solvent correction) were introduced to remove the differences derived from the DMSO. Finally, the background was corrected subtracting blank injections (blank subtraction) to the injected compound signals.

Structure (SMILES) | melting point | EC50 (HL60 cell line) | Kd (human TET2 construct)
Cc1[nH]c2ccccc2c1-c1csc(NC(=O)Cc2cc3ccccc3o2)n1 [Example 18, 2-(benzofuran-2-yl)-N-[4-(2-methyl-1H-indol-3-yl)thiazol-2-yl]acetamide] | 198 to 200 °C | 7.5 µM | 5 µM
Cc1[nH]c2ccccc2c1-c1csc(NC(=O)Cc2cn(C)c3ccccc23)n1 [Example 11, 2-(1-methyl-1H-indol-3-yl)-N-[4-(2-methyl-1H-indol-3-yl)thiazol-2-yl]acetamide] | 139 to 142 °C | 2.2 µM | 2 µM
Cc1[nH]c2ccccc2c1-c1csc(NC(=O)Cc2cc3ccccc3[nH]2)n1 [Example 7, 2-(1H-indol-2-yl)-N-[4-(2-methyl-1H-indol-3-yl)thiazol-2-yl]acetamide] | 166 to 168 °C | 9.3 µM | 5 µM
Cc1[nH]c2ccccc2c1-c1csc(NC(=O)Cc2nc3ccccc3o2)n1 [Example 3, 2-(benzo[d]oxazol-2-yl)-N-[4-(2-methyl-1H-indol-3-yl)thiazol-2-yl]acetamide] | 239 to 242 °C | 1.3 µM | 16 µM
O=C(Cc1cn2ccsc2n1)Nc1nc(-c2c[nH]c3ccc([N+](=O)[O-])cc23)cs1 [Example 23, 2-(imidazo[2,1-b]thiazol-6-yl)-N-[4-(5-nitro-1H-indol-3-yl)thiazol-2-yl]acetamide] | 232 to 234 °C |  | 15 µM
Cc1[nH]c2ccccc2c1-c1csc(N(C)C(=O)C(C)c2cn3ccsc3n2)n1 (stereo not drawn) [Example 15, 2-(imidazo[2,1-b]thiazol-6-yl)-N-methyl-N-[4-(2-methyl-1H-indol-3-yl)thiazol-2-yl]propanamide] | 85 to 88 °C | 20.2 µM | 11 µM
COc1ccc2[nH]c(C)c(-c3csc(NC(=O)Cc4cn5ccsc5n4)n3)c2c1 [Example 25, 2-(imidazo[2,1-b]thiazol-6-yl)-N-[4-(5-methoxy-2-methyl-1H-indol-3-yl)thiazol-2-yl]acetamide] | 143 to 144 °C |  | 13 µM
Cc1[nH]c2ccc([N+](=O)[O-])cc2c1-c1csc(NC(=O)Cc2cn3ccsc3n2)n1 [Example 27, 2-(imidazo[2,1-b]thiazol-6-yl)-N-[4-(2-methyl-5-nitro-1H-indol-3-yl)thiazol-2-yl]acetamide] | 150 to 151 °C |  | 
O=C(Cc1cn2ccsc2n1)Nc1nc(-c2c[nH]c3cccc(Br)c23)cs1 [Example 22, N-[4-(4-bromo-1H-indol-3-yl)thiazol-2-yl]-2-(imidazo[2,1-b]thiazol-6-yl)acetamide] | 233 to 235 °C | 0.266 µM | 2 µM
Cc1ccc2[nH]cc(-c3csc(NC(=O)Cc4cn5ccsc5n4)n3)c2c1 [Example 24, 2-(imidazo[2,1-b]thiazol-6-yl)-N-[4-(5-methyl-1H-indol-3-yl)thiazol-2-yl]acetamide] | 160 to 162 °C | 0.912 µM | 1 µM
Cc1[nH]c2ccccc2c1-c1csc(NC(=O)Cc2cn3c(C)csc3n2)n1 [Example 10, N-[4-(2-methyl-1H-indol-3-yl)thiazol-2-yl]-2-(3-methylimidazo[2,1-b]thiazol-6-yl)acetamide] | 145 to 148 °C | 3.3 µM | 11 µM
Cc1[nH]c2ccccc2c1-c1csc(NC(=O)Cc2sc3ccccc3c2C)n1 [Example 20, N-[4-(2-methyl-1H-indol-3-yl)thiazol-2-yl]-2-(3-methylbenzo[b]thiophen-2-yl)acetamide] | 233 to 235 °C |  | 5 µM
COc1ccc2[nH]cc(CC(=O)Nc3nc(-c4c(C)[nH]c5ccccc45)cs3)c2c1 [Example 6, 2-(5-methoxy-1H-indol-3-yl)-N-[4-(2-methyl-1H-indol-3-yl)thiazol-2-yl]acetamide] | 127 to 129 °C | 3.4 µM | 5 µM
Cc1cn2cc(CC(=O)Nc3nc(-c4c(C)[nH]c5ccccc45)cs3)nc2s1 [Example 9, N-[4-(2-methyl-1H-indol-3-yl)thiazol-2-yl]-2-(2-methylimidazo[2,1-b]thiazol-6-yl)acetamide] | 140 to 142 °C |  | 9 µM
Cc1[nH]c2ccccc2c1-c1csc(NC(=O)Cc2csc3nccn23)n1 [Example 2, 2-(imidazo[2,1-b]thiazol-3-yl)-N-[4-(2-methyl-1H-indol-3-yl)thiazol-2-yl]acetamide] | 160 to 163 °C | 4.3 µM | 15 µM
Cc1[nH]c2cc(F)ccc2c1-c1csc(NC(=O)Cc2cn3ccsc3n2)n1 [Example 26, N-[4-(6-fluoro-2-methyl-1H-indol-3-yl)thiazol-2-yl]-2-(imidazo[2,1-b]thiazol-6-yl)acetamide] | 157 to 158 °C |  | 16 µM
Cc1[nH]c2ccccc2c1-c1csc(NC(=O)Cc2c[nH]c3cc(Cl)ccc23)n1 [Example 16, 2-(6-chloro-1H-indol-3-yl)-N-[4-(2-methyl-1H-indol-3-yl)thiazol-2-yl]acetamide] | 175 to 177 °C |  | 7 µM
Cc1[nH]c2ccccc2c1-c1csc(NC(=O)Cc2c[nH]cn2)n1 [Example 17, 2-(1H-imidazol-4-yl)-N-[4-(2-methyl-1H-indol-3-yl)thiazol-2-yl]acetamide] | 107 to 112 °C | 4.9 µM | 11 µM
Cc1[nH]c2ccccc2c1-c1csc(NC(=O)Cc2cn3cc(F)ccc3n2)n1 [Example 8, 2-(6-fluoroimidazo[1,2-a]pyridin-2-yl)-N-[4-(2-methyl-1H-indol-3-yl)thiazol-2-yl]acetamide] | 114 to 119 °C | 0.072 µM | 10 µM
Cc1[nH]c2ccccc2c1-c1csc(NC(=O)CCc2c[nH]c3ccccc23)n1 [Example 14, 3-(1H-indol-3-yl)-N-[4-(2-methyl-1H-indol-3-yl)thiazol-2-yl]propanamide] | 133 to 135 °C | 13.4 µM | 14 µM
Cc1[nH]c2ccc(N)cc2c1-c1csc(NC(=O)Cc2cn3ccsc3n2)n1 [Example 28, N-[4-(5-amino-2-methyl-1H-indol-3-yl)thiazol-2-yl]-2-(imidazo[2,1-b]thiazol-6-yl)acetamide] | 125 to 126 °C |  | 67 µM

Source: patent US20240208998A1, “COMPOUNDS FOR USE IN THE TREATMENT OF HYPERPROLIFERATIVE DISORDERS” (FUNDACIÓ PRIVADA INSTITUT D'INVESTIGACIÓ ONCOLÓGICA DE VALL …, priority 2021, published 2024)
